The subject of data set [1] is P. falciparum male gametocytes. The experiment in a line: P. falciparum Dual Gamete Formation Assay (PfDGFA), male readout (exflagellation). The format is cell-based, Plasmodium falciparum NF54. The note with it: for inhibition at 2 µM: 24h preincubation with gametocytes. An outline of the steps:
(§1)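 First, day-14 P. falciparum NF54 gametocytes receive compound for 24 h at 37°C in 1% O2/3% CO2. Next, ookinete medium with Cy3 anti-Pfs25 triggers gametogenesis at 28°C and male exflagellation is imaged. Finally, after 24 h in the dark, Cy3-labelled females are imaged.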

The subject of data set [2] is P. falciparum female gametocytes. The experiment in a line: P. falciparum Dual Gamete Formation Assay (PfDGFA), female readout (Pfs25-positive female gametes). The class given is cell-based, Plasmodium falciparum NF54. To be noted: for inhibition at 2 µM: 24h preincubation with gametocytes. An outline of the steps: as §1
The subject of data set [3] is P. falciparum male gametocytes. The experiment in a line: PhIDDLI timecourse assay, compound added at timepoints after triggering male gametogenesis. The class given is cell-based, Plasmodium falciparum NF54. The note with it: for impact on exflagellation: compound added concurrent with triggering gametogenesis or at any other point. The procedure:
To gain greater understanding of their activity, selected molecules displaying different inhibition phenotypes in the initial screen were re-tested. Rather than subjecting gametocytes to a 24h preincubation prior to inducing gametogenesis, compounds were added at varying timepoints after triggering male gametogenesis. Samples were then fixed 20 min post-induction, imaged and analysed similarly using the PhIDDLI pipeline.
Alternatively, if compound action over time was to be assessed, 1.5ml tubes with appropriate dilutions of test compounds were prepared for each timepoint. Gametogenesis was then triggered in the mature gametocyte culture with ookinete medium and temperature decrease from 37°C. At appropriate times, 200 μl of triggered culture was sampled and mixed with test compound. All samples were then allowed to continue gametogenesis and fixed as described previously with paraformaldehyde after 20 min (when a DMSO-treated sample could be expected to be exflagellating).
100 μl of the fixed cell suspensions were added to wells of a 24 well plate containing 1ml PBS and a poly-l-lysine-coated glass coverslip. Cells were allowed to settle and adhere to the coverslip overnight at 4°C before coverslips were transferred to a hydrophobic membrane (Parafilm) for immunofluorescence staining in a humidified, dark box. Cells were permeabilised with 0.1% Triton-X100 in PBS for 10 min before washing in PBS three times. Non-specific binding was blocked by incubating coverslips with PBS + 10% fetal bovine serum (FBS) (blocking buffer) for 1 h. Gametocytes and microgametes were visualised by labelling with an anti-alpha tubulin antibody (raised from chicken embryo brain tubulin but cross-reacts with many other species) (clone DM1A (Sigma)) 1:500 dilution in blocking buffer for 1 h, washed as before, and then stained with an anti-mouse Alexa488 secondary antibody (Thermo-Fisher) 1:1,000 dilution in blocking buffer for a further 1 h. After a final series of washes, the coverslips were mounted on glass slides with VectaShield mountant (Vector Laboratories) containing 4′,6-diamidino-2-phenylindole (DAPI) to visualise cellular DNA.
All slides were imaged using a Nikon Ti fluorescence microscope using an x100 oil objective and 1.5x zoom. For each sample, tubulin-postive, DAPI-positive stained gametocytes/gametes were imaged at random. Z-stack images with 0.3μm slices were captured for each field of view and images deconvolved and transformed by maximum intensity projection within the Nikon NIS Elements software. Within raw images, cells were initially identified by an automated analysis pipeline developed in ICY Bioimage Analysis based upon the intensity of the tubulin staining captured which assigns a region of interest (ROI) around each cell. All ROIs were reviewed by a trained operator and adjusted if necessary to reflect the true outline of the cell (for example if two cells touching had been allocated the same ROI). Raw images contained between 1 and 8 extractable cells.
Code for the PhIDDLI pipeline was written in Python 3.8 and executed by command line within a 64-bit Ubuntu virtual machine running within Oracle VM VirtualBox 6.1. […] Principle component analysis of compound phenotypes (Fig 5) was performed using ClustViz (https://biit.cs.ut.ee/clustvis/) using ln(x+1) transformation, and k-means clustering of the resultant PCA data was coded in R and executed in R Studio version 1.1.456 to identify optimum cluster using the elbow method.

Data set [4] deals with P. falciparum gametocytes. In words: P. falciparum Gametocyte Viability ATP Assay (PfGCT). The format is cell-based, Plasmodium falciparum. The text has this: (§2) Fig 1 The activity of TCAMS compound identified in the Pf DGFA screen. (A) 85 molecules were confirmed active in the Pf DGFA. 58 were previously identified in one or more transmission-blocking screens. […] No molecule was identified with >4.7-fold greater activity against female gametocytes. Abbreviations (IC50 = concentration giving 50% inhibition, PbODA = P. berghei Ookinete Development Assay, PfDGFA = P. falciparum Dual Gamete Formation Assay, PfFGAA = P. falciparum Female Gametocyte Activation Assay, PfGCT = P. falciparum Gametocyte Viability ATP Assay).

Data set [5] relates to P. falciparum gametocytes. Also noted: method as in Almela et al 2015. The note with it: ref Almela et al 2015; read-out: Pf Gametocyte viability (ATP) GC-ATP IC50; cited from earlier work.
The test system of data set [6] is HepG2 cells. To be noted: cited from earlier work.
For data set [7], the system named is HepG2 cells. The experiment in a line: HepG2 cytotoxicity counter-screen. To be noted: for Mean TOX: mean of the HepG2 TOX50 values.
Data set [8] relates to P. falciparum female gametocytes. The experiment in a line: P. falciparum Female Gametocyte Activation Assay (PfFGAA). The class given is cell-based, Plasmodium falciparum.
Data set [9] shares this test system. Also on record: method as in Miguel-Blanco et al 2017. To be noted: ref Miguel-Blanco et al 2017; read-out: Pf female gametogenesis FGAA IC50; cited from earlier work.
Data set [10] deals with P. berghei ookinete development. In words: P. berghei Ookinete Development Assay (PbODA). The format is cell-based, Plasmodium berghei. To be noted: Mean TOX HepG2 over Pb ODA value; GREEN = >10-fold; RED = <10-fold.
Source text: as §2

Where [11] appears, read: this study, read-out: Pf DGFA IC50 MALE.
[12] abbreviates: this study, read-out: Pf DGFA IC50 FEM.
[13] abbreviates: Mean TOX HepG2 over GC-ATP IC50, GREEN = >10-fold, RED = <10-fold.
[14] abbreviates: Mean TOX HepG2 over FGAA IC50, GREEN = >10-fold, RED = <10-fold.

Read-outs that look alike come from different tables or passages of the source.

As for `COc1ccc2nc3cc(Cl)ccc3c(NCCCCNc3c4ccc(Cl)cc4nc4ccc(OC)cc34)c2c1` [TC02], the “Cytotox ratio Pf Male” value in [1] is 22.1. The results for the IC50 in data set [1] (setting [11]), in [2] (setting [12]) and in [5] were 380 nM, 380 nM and 200 nM, respectively. Also, the “Cytotox ratio Pf Female” value in [2] is given as 22.1. Also, the impact on exflagellation entry in data set [3] is “little-to-no impact”. Further, the “Cytotox ratio Pf GC-ATP” value in data set [4] (setting [13]) was 42.0. Moreover, the “GC-ATP TOX50 HepG2” value with HepG2 cells [6] was 14.47 µM. In the data set on HepG2 cells [7], the “Mean TOX” value is 8.39 µM.
For the molecule `CC(C)(C)c1ccc(-c2nc3c(ccc4nc(N)nc(N)c43)[nH]2)cc1.Cl` [TC05], the “Cytotox ratio Pf Male” value in [1] stood at 17.1. Also, the IC50 in data set [1] (setting [11]) is 180 nM; in [2] (setting [12]), 970 nM; in data set [9], 260 nM; in [5], 210 nM. Besides, the “Cytotox ratio Pf Female” value in data set [2] was 3.2. The impact on exflagellation entry in [3] is listed as “little-to-no impact”. For the same molecule, in data set [8] (setting [14]), the “Cytotox ratio Pf FGAA” value is listed as 11.8. For the same molecule, the “Cytotox ratio Pf GC-ATP” value in [4] (setting [13]) is given as 14.6. For the same molecule, in the data set with HepG2 cells [6], the “FGAA TOX50 HepG2” value is 2.12 µM. Also, in the data set on HepG2 cells [6], the “GC-ATP TOX50 HepG2” value is 3.85 µM. Moreover, the “Mean TOX” value in the data set with HepG2 cells [7] was 3.07 µM.
For the molecule `Fc1ccc2[nH]c(-c3ccc(-c4ccc(CNCCN5CCNCC5)cc4)s3)nc2c1.O=C(O)C(F)(F)F` [TC23], the “Cytotox ratio Pf Male” value in [1] turned out to be 12.4. The IC50 in data set [1] (setting [11]) was 1970 nM; in [2] (setting [12]), 7180 nM; in data set [5], 530 nM. Besides, in [2], the “Cytotox ratio Pf Female” value is recorded as 3.4. The same molecule showed a cells exflagellating in [3] (compound added concurrent with triggering gametogenesis, DMSO control 43.7%) of 19.8%. The “Cytotox ratio Pf GC-ATP” value in data set [4] (setting [13]) came to 46.3. In addition, in the data set on HepG2 cells [6], the “GC-ATP TOX50 HepG2” value was 25 µM. Besides, the “Mean TOX” value in the data set on HepG2 cells [7] was 24.53 µM.
`O=c1c(Br)ccccc1Br` [TC48]: the “Cytotox ratio Pf Male” value in [1] is on record as 76.3. In addition, the IC50 was 150 nM in data set [1] (setting [11]), 110 nM in data set [2] (setting [12]) and 210 nM in [5]. For the same molecule, the “Cytotox ratio Pf Female” value in [2] worked out at 104.1. Besides, the “Cytotox ratio Pb Ookinete” value in data set [10] is on record as 10834.6. Further, the “Cytotox ratio Pf GC-ATP” value in [4] (setting [13]) is given as 54.5. Moreover, the “GC-ATP TOX50 HepG2” value with HepG2 cells [6] was 12.6 µM. For the same molecule, in the data set on HepG2 cells [6], the “ODA TOX50 HepG2” value was 14.791 µM. Moreover, the “Mean TOX” value in the data set on HepG2 cells [7] stood at 11.45 µM.
Regarding `O=C(O)CCSSc1cccc[n+]1[O-]` [TC78], the “Cytotox ratio Pf Male” value in data set [1] is reported as 92.3. For the same molecule, the IC50 in data set [1] (setting [11]) is 240 nM; in data set [2] (setting [12]), 260 nM; in data set [9], 40 nM; in data set [5] it was 270 nM. For the same molecule, the “Cytotox ratio Pf Female” value in data set [2] turned out to be 85.2. Further, in [10], the “Cytotox ratio Pb Ookinete” value was 13258.7. For the same molecule, the “Cytotox ratio Pf FGAA” value in data set [8] (setting [14]) was found to be 554.1. Besides, the “Cytotox ratio Pf GC-ATP” value in data set [4] (setting [13]) is recorded as 82.1. Moreover, the “FGAA TOX50 HepG2” value in the data set on HepG2 cells [6] is 19.05 µM. For the same molecule, the “GC-ATP TOX50 HepG2” value in the data set with HepG2 cells [6] is 7.8 µM. Moreover, the “ODA TOX50 HepG2” value with HepG2 cells [6] is listed as 30.903 µM. The “Mean TOX” value with HepG2 cells [7] is 22.16 µM.
Regarding `CN1CCN(CCCNCc2cccc(-c3ccc(CNCCc4ccccc4)cc3)c2)CC1.O=C(O)C(F)(F)F` [TCMDC-140643], the “Selectivity Ratio M” value in data set [1] (HepG2 Tox50 versus male IC50) was 18.8. The “Cytotox ratio Pf Male” value in data set [1] (Mean TOX HepG2 over DGFA IC50 MALE, GREEN = >10-fold, RED = <10-fold) was 18.9. Moreover, the inhibition at 2 µM stood at 91.2% in [1] (Plasmodium falciparum, average of replicates, read-out: Average inhibition male (%)); 95% in data set [1] (Plasmodium falciparum, replicate R1, read-out: % inhibition male (individual replicates) R1); 75.6% in [1] (Plasmodium falciparum, replicate R2, read-out: % inhibition male (individual replicates) R2); 95.7% in [1] (Plasmodium falciparum, replicate R3, read-out: % inhibition male (individual replicates) R3); 98.5% in data set [1] (Plasmodium falciparum, replicate R4, read-out: % inhibition male (individual replicates) R4); 34.1% in data set [2] (Plasmodium falciparum, average of replicates, read-out: Average inhibition female (%)). The inhibition at 2 µM in data set [2] (Plasmodium falciparum, replicate R1, read-out: % inhibition female (individual replicates) R1) was found to be 40.2%; in [2] (Plasmodium falciparum, replicate R2, read-out: % inhibition female (individual replicates) R2) it was 30.4%; in data set [2] (Plasmodium falciparum, replicate R3, read-out: % inhibition female (individual replicates) R3), 25.8%; in [2] (Plasmodium falciparum, replicate R4, read-out: % inhibition female (individual replicates) R4) it was 40%. Moreover, the IC50 was 690 nM in [1] (Plasmodium falciparum, PfDGFA, 24 h incubation with gametocytes before induction, exflagellation readout, read-out: Male IC50); 7980 nM in data set [2] (Plasmodium falciparum, PfDGFA, 24 h incubation with gametocytes before induction, female gamete readout, read-out: Female IC50); 1910 nM in [9]; 410 nM in data set [5]. The “Selectivity ratio F” value in data set [2] (HepG2 Tox50 versus female IC50) is 1.63. Further, the “Cytotox ratio Pf Female” value in data set [2] (Mean TOX HepG2 over DGFA IC50 FEM, GREEN = >10-fold, RED = <10-fold) was 1.6. For the same molecule, in [8] (human), the “Cytotox ratio Pf FGAA” value was 6.8. Also, the “Cytotox ratio Pf GC-ATP” value in [4] (human) stood at 31.9. Further, the “FGAA TOX50 HepG2” value with HepG2 cells [6] (HepG2 value reported with the FGAA screen, ref Miguel-Blanco et al 2017) was 7.92 µM. Moreover, the “GC-ATP TOX50 HepG2” value with HepG2 cells [6] (HepG2 value reported with the GC-ATP screen, ref Almela et al 2015) is reported as 18.24 µM. In the data set on HepG2 cells [7] (cytotoxic activity against HepG2 cells), the Tox50 is recorded as 13.04 µM. Further, in the data set with HepG2 cells [7], the “Mean TOX” value was determined as 13.07 µM.

Values taken from publication PMC10584170, “Machine learning-based phenotypic imaging to characterise the targetable biology of Plasmodium falciparum male gametocytes for the development of transmission-blocking antimalarials” (PLOS Pathogens, 2023).
